Here are results for 25 molecules from patent US8071581B2, “Triazolopyridazine protein kinase modulators” (SGX Pharmaceuticals, Inc., priority 2006, dated 2011).

The test system of experiment [1] is GTL16. Put plainly: GTL16 cell assay (EC50). In kind it is cell-based. Conditions: Homo sapiens, GTL 16.
Experiment [2] deals with GTL16 tumors. Description: GTL16 tumor xenograft model, tumor growth inhibition. Particulars: for decrease of mean tumor volume compared to vehicle-treated group: last day of treatment. In kind it is in vivo, female athymic nude mice. The procedure:
GTL16 Tumor Xenograft Model
Female athymic nude mice (nu/nu from Harlan) were 6-8 weeks old with a body weight range of 18-22 g at the beginning of the study. The animals had free access to food and water throughout the study. The mice were housed on irradiated Alpha-dri® Bed-O-Cobs® Laboratory Animal Bedding in static micro isolator caging on a 12-hour light cycle at 70-74° F. and 40-60% humidity. All procedures involving animals were conducted in compliance with the NIH Guide for the Care and Use of Laboratory Animals and all protocols were approved by an Internal Animal Care and Use Committee (IACUC).
Xenografts were initiated from GTL-16 tumor cells cultured and maintained by an internal Cell Biology Department. Each test mouse received a subcutaneous injection of 4×10^6 cells suspended in 100 μL of serum free RPMI media. Tumors were randomized into treatment groups on Day 5 when the average tumor size reached approximately 150 mm^3. Each dose groups contained n=5 mice. Tumor volume was calculated using the formula: Tumor Volume=(w^2×l)/2, where w=width and l=length in mm of the tumor. Tumor weight may be estimated with the assumption that 1 mg is equivalent to 1 mm^3 of tumor volume.
Tumor Growth Inhibition (TGI) Analysis
TGI was calculated from the difference between the mean tumor volumes of vehicle-treated and drug-treated mice, expressed as a percentage.
The MTV is defined as the mean tumor volume (MTV) for the number of animals, n, remaining in the study on that day.

In experiment [3] the target is MET kinase (c-MET), kinase domain of human Met (Homo sapiens, UniProt P08581). Put plainly: MET luminescence-based enzyme assay (Kinase-Glo). For orientation: Kinase-Glo measures the ATP left after a reaction by luminescence.
Chain of MET kinase (c-MET), kinase domain of human Met (P08581 1078-1345 limits assumed): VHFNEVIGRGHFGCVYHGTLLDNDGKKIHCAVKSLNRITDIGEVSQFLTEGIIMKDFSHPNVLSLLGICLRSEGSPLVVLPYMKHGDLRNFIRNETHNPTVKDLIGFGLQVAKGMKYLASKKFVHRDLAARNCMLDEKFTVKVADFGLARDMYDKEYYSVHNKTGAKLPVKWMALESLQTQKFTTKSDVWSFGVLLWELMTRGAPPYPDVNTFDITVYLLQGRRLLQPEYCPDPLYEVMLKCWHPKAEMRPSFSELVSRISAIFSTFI

In the case of `CNC(=O)c1ccc(-c2ccc3nnc(Cc4ccc5ncccc5c4)n3n2)cc1F` [compound 30], the EC50 in experiment [1] (Table 1) is under 100 nM. For the same molecule, the “decrease of mean tumor volume compared to vehicle-treated group” value was found to be 27% in experiment [2] (3 mg/kg PO BID for 14 consecutive days, p<0.2743) and 89% in experiment [2] (50 mg/kg IP BID for 14 consecutive days, p<0.0036). In addition, the “inhibition of growth of GTL16 tumors grown subcutaneously” value in experiment [2] (IP dose 50 mg/kg BID, 14 consecutive days) is recorded as “statistically significant inhibition”. Also, in experiment [3], the IC50 is under 100 nM.
`Cc1ccc2nnc(Cc3ccc4ncc(-c5cnn(C)c5)cc4c3)n2n1` [compound 124, 3-(1-Methyl-1H-pyrazol-4-yl)-6-(6-methyl-[1,2,4]triazolo[4,3-b]pyridazin-3-ylmethyl)-quinoline] yielded a 50% effective concentration (EC50) in experiment [1] (Table 2) of under 100 nM. Besides, the “decrease of mean tumor volume compared to vehicle-treated group” value is reported as 32% in experiment [2] (1 mg/kg PO Q12H for 14.5 consecutive days, p=0.0079); 55% in experiment [2] (3 mg/kg PO Q12H for 14.5 consecutive days, p<0.0001); 72% in experiment [2] (10 mg/kg PO Q12H for 14.5 consecutive days, p<0.0001); 79% in experiment [2] (30 mg/kg PO Q12H for 14.5 consecutive days, p<0.0001). This molecule also yielded a concentration for half-maximal inhibition (IC50) in experiment [3] of under 100 nM.
In turn, `Cc1ccc2nnc(Cc3cc4cc(-c5cnn(C)c5)cnc4cc3F)n2n1` [compound 158] showed an EC50 in experiment [1] (Table 2) of under 100 nM. Also, in experiment [3], the half-inhibitory concentration (IC50) is under 100 nM.
As for `CN(C)c1ccc2nnc(Cc3ccc4ncc(-c5cnn(C)c5)cc4c3)n2n1` [compound 159, Dimethyl-{3-[3-(1-methyl-1H-pyrazol-4-yl)-quinolin-6-ylmethyl]-[1,2,4]triazolo[4,3-b]pyridazin-6-yl}-amine], the concentration giving a half-maximal response (EC50) in experiment [1] (Table 2) is under 100 nM. This molecule also had a concentration for half-maximal inhibition (IC50) in experiment [3] of under 100 nM.
The molecule `CNc1ccc2nnc(Cc3ccc4ncc(-c5cnn(C)c5)cc4c3)n2n1` [compound 160] showed a concentration for a half-maximal effect (EC50) in experiment [1] (Table 2) of under 100 nM. In experiment [3], this molecule showed a concentration for half-maximal inhibition (IC50) of under 100 nM.
In experiment [1] (Table 2), `Cn1cc(-c2cnc3ccc(Cc4nnc5ccc(N)nn45)cc3c2)cn1` [compound 161] came in with an EC50 of under 100 nM. In experiment [3], this molecule gave an IC50 of under 100 nM.
Molecule `CCn1cc(-c2cnc3ccc(Cc4nnc5ccc(C)nn45)cc3c2)cn1` [compound 162] yielded an EC50 in experiment [1] (Table 2) of under 100 nM. Further, the 50% inhibitory concentration (IC50) in experiment [3] was under 100 nM.
`CCCn1cc(-c2cnc3ccc(Cc4nnc5ccc(C)nn45)cc3c2)cn1` [compound 163] had an EC50 in experiment [1] (Table 2) of under 100 nM. This molecule also had an IC50 in experiment [3] of under 100 nM.
In experiment [1] (Table 2), `Cc1ccc2nnc(Cc3ccc4ncc(-c5cnn(C6(C(=O)O)CCC6)c5)cc4c3)n2n1` [compound 164] showed an EC50 of 1000 to 10000 nM. This molecule also displayed an IC50 in experiment [3] of under 100 nM.
Turning to `CCc1ccc2nnc(Cc3cc4cc(-c5cnn(C)c5)cnc4cc3F)n2n1` [compound 165], the half-maximal effective concentration (EC50) in experiment [1] (Table 2) is under 100 nM. For the same molecule, in experiment [3], the IC50 is under 100 nM.
The molecule `CCc1ccc2nnc(Cc3c(F)cc4ncc(-c5cnn(C)c5)cc4c3F)n2n1` [compound 166, 6-(6-Ethyl-[1,2,4]triazolo[4,3-b]pyridazin-3-ylmethyl)-5,7-difluoro-3-(1-methyl-1H-pyrazol-4-yl)-quinoline] had an EC50 in experiment [1] (Table 2) of under 100 nM. The molecule further yielded a concentration for half-maximal inhibition (IC50) in experiment [3] of under 100 nM.
As to `Cn1cc(-c2cnc3cc(F)c(Cc4nnc5cccnn45)cc3c2)cn1` [compound 167], the EC50 in experiment [1] (Table 2) was 10000 to 50000 nM. In experiment [3], this molecule came in with a 50% inhibitory concentration (IC50) of under 100 nM.
On the same counts, the results for `Cc1ccc2nnc(Cc3ccc4ncc(-c5cnn(CCN(C)C)c5)cc4c3)n2n1` [compound 168] are under 100 nM and under 100 nM.
In experiment [1] (Table 2), `Cc1ccc2nnc(Cc3ccc4ncc(-c5cnn(CC6CN(C(=O)OC(C)(C)C)C6)c5)cc4c3)n2n1` [compound 169] registered an EC50 of under 100 nM. In experiment [3], this molecule yielded a concentration for half-maximal inhibition (IC50) of under 100 nM.
In experiment [1] (Table 2), `Cc1ccc2nnc(Cc3ccc4ncc(-c5cnn(CCN6CCCC6)c5)cc4c3)n2n1` [compound 170] yielded an EC50 of under 100 nM. The same molecule returned an IC50 in experiment [3] of under 100 nM.
The molecule `CCN1CC(n2cc(-c3cnc4ccc(Cc5nnc6ccc(C)nn56)cc4c3)cn2)C1` [compound 171, 3-[1-(1-Ethyl-azetidin-3-yl)-1H-pyrazol-4-yl]-6-(6-methyl-[1,2,4]triazolo[4,3-b]pyridazin-3-ylmethyl)-quinoline] returned an EC50 in experiment [1] (Table 2) of under 100 nM. Besides, the IC50 in experiment [3] was under 100 nM.
Molecule `Cc1ccc2nnc(Cc3ccc4ncc(-c5cnn(CC6CN(S(C)(=O)=O)C6)c5)cc4c3)n2n1` [compound 172, 3-[1-(1-Methanesulfonyl-azetidin-3-ylmethyl)-1H-pyrazol-4-yl]-6-(6-methyl-[1,2,4]triazolo[4,3-b]pyridazin-3-ylmethyl)-quinoline] came in with an EC50 in experiment [1] (Table 2) of 100 to 1000 nM. Further, the IC50 in experiment [3] was under 100 nM.
With `CCN(CC)CCn1cc(-c2cnc3ccc(Cc4nnc5ccc(C)nn45)cc3c2)cn1` [compound 173], the concentration for a half-maximal effect (EC50) in experiment [1] (Table 2) was under 100 nM. The same molecule gave a concentration for half-maximal inhibition (IC50) in experiment [3] of under 100 nM.
Take `Cn1cc(-c2cnc3cc(F)c(Cc4nnc5cccnn45)c(F)c3c2)cn1` [compound 174]: the EC50 in experiment [1] (Table 2) is 100 to 1000 nM. The molecule further had a half-maximal inhibitory concentration (IC50) in experiment [3] of under 100 nM.
For the molecule `CC(=O)N1CC(n2cc(-c3cnc4ccc(Cc5nnc6ccc(C)nn56)cc4c3)cn2)C1` [compound 175, 1-(3-{4-[6-(6-Methyl-[1,2,4]triazolo[4,3-b]pyridazin-3-ylmethyl)-quinolin-3-yl]-pyrazol-1-yl}-azetidin-1-yl)-ethanone], the EC50 in experiment [1] (Table 2) lay within 100 to 1000 nM. This molecule registered a 50% inhibitory concentration (IC50) in experiment [3] of under 100 nM.
Take `Cc1ccc2nnc(Cc3c[nH]c4ncc(-c5cnn(C)c5)cc34)n2n1` [compound 177, 6-Methyl-3-[5-(1-methyl-1H-pyrazol-4-yl)-1H-pyrrolo[2,3-b]pyridine-3-ylmethyl]-[1,2,4]triazolo[4,3-b]pyridazine]: in experiment [1] (Table 2), the half-maximal effective concentration (EC50) lay within 100 to 1000 nM. Besides, the half-maximal inhibitory concentration (IC50) in experiment [3] was under 100 nM.
Consider `Cn1cc(-c2cnc3ccc(Cc4nnc5nccnn45)cc3c2)cn1` [compound 179, 3-(1-Methyl-1H-pyrazol-4-yl)-6-[1,2,4]triazolo[4,3-b][1,2,4]triazin-3-ylmethyl-quinoline], for which the EC50 in experiment [1] (Table 2) was under 100 nM. The IC50 in experiment [3] was under 100 nM.
Molecule `CCN1CC(Cn2cc(-c3cnc4ccc(Cc5nnc6ccc(C)nn56)cc4c3)cn2)C1` [compound 180] came in with an EC50 in experiment [1] (Table 2) of under 100 nM. Moreover, the half-inhibitory concentration (IC50) in experiment [3] was under 100 nM.
Regarding `CC(=O)N1CC(Cn2cc(-c3cnc4ccc(Cc5nnc6ccc(C)nn56)cc4c3)cn2)C1` [compound 181], in experiment [1] (Table 2), the 50% effective concentration (EC50) was in the range of 100 to 1000 nM. The molecule further yielded a half-inhibitory concentration (IC50) in experiment [3] of under 100 nM.
As to `Cc1ccc2nnc(Cc3ccc4ncc(-c5cnn(C6CN(S(C)(=O)=O)C6)c5)cc4c3)n2n1` [compound 182], in experiment [1] (Table 2), the half-maximal effective concentration (EC50) is 100 to 1000 nM. Besides, the IC50 in experiment [3] is under 100 nM.

Broadly, the EC50 is the concentration at which the effect is half-maximal. A high value points to a less potent agent. In general, IC50 refers to the concentration that inhibits the measured activity by half. The low end stands for higher potency, the high end for lower potency.
